Several values for one entry are separate records, joined by “and”; a condition that tells them apart may be missing. Identical values can stand only once.
Columns and labels:
Details in all cases: average where tested multiple times
BCAT2 [1] = biological target: T1, BCAT2 (Homo sapiens, UniProt O15382); experiment: BCAT2 in vitro enzyme inhibition assay (resazurin/diaphorase-coupled fluorescence); format: biochemical
T1 sequence (O15382 28-392): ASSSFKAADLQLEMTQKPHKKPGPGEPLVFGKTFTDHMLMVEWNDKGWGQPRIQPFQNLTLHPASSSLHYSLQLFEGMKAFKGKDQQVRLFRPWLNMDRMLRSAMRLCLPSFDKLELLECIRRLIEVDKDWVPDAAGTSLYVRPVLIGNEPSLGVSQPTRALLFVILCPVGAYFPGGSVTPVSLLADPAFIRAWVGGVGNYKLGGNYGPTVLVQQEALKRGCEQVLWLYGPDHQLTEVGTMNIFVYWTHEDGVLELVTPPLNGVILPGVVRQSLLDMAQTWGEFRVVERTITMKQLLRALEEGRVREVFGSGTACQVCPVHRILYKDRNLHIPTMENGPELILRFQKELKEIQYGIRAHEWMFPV
How it was run: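 Coupled fluorescence readout: glutamate formed from L-leucine/α-ketoglutarate transamination drives GDH/NAD/diaphorase reduction of resazurin (Ex 540/Em 590). Human BCAT2 was first exposed 1 h at room temperature to compound, top final 100 μM in 3-fold, 10-point series; substrate reaction ran 1 h before SDS quench, in technical duplicate with DMSO max and enzyme-free min controls.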

hBCAT1 = biological target: T2, hBCAT1 (Homo sapiens, UniProt P54687); experiment: BCAT1 in vitro enzyme inhibition assay (resazurin/diaphorase-coupled fluorescence); format: biochemical
T2 sequence (P54687 1-386): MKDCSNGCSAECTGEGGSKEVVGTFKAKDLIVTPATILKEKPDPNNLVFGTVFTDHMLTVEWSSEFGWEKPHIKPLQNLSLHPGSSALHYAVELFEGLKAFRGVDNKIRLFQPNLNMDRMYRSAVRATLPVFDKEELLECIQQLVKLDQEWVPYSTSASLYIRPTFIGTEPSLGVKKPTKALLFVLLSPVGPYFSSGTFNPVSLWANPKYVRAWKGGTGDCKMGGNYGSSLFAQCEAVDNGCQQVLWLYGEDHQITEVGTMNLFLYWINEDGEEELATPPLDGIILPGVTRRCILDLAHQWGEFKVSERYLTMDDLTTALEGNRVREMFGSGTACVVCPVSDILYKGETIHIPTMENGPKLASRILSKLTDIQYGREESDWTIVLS
How it was run: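 Ten-point, 3-fold compound series (top final 100 μM, delivered 1:50 from 50× DMSO stocks) tested against hBCAT1. Inhibition detected via diaphorase-coupled resazurin fluorescence, duplicate wells, with values from repeated runs averaged.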

BCAT2 [2] = biological target: T1, BCAT2; experiment: BCAT2 in vitro cell inhibition using engineered A549 cells (KMV cell assay, 13C6-KMV by LC-MS/MS); format: cell-based; parameters: The result was an engineered A549 cell line that expressed endogenous BCAT2; endogenous in cells; host or cells: A549 cells with MUT and BCAT1 knocked out by CRISPR/CAS9; key to BCAT2 Cell Inhibition: A: less than or equal to 0.100 μM; B: greater than 0.100 and less than or equal to 0.500 μM; C: greater than 0.500 and less than or equal to 1.000 μM; d: greater than 1.000 μM; E: no fit

| Structure (SMILES) | IC50 (BCAT2 [1]) | IC50 (hBCAT1) [nM] | IC50 (BCAT2 [2]) [nM] | BCAT2 Cell Inhibition (BCAT2 [2]) |
| --- | --- | --- | --- | --- |
| O=C(N[C@H]1CCC[C@@H](n2c(-c3ccccn3)nc3cnc(-n4nccn4)cc32)C1)c1ncc(Br)s1 [Example 19, 5-bromo-N-((1S,3R)-3-(2-(pyridin-2-yl)-6-(2H-1,2,3-triazol-2-yl)-1H-imidazo[4,5-c]pyridin-1-yl)cyclohexyl)thiazole-2-carboxamide] | ≤ 100 nM | < 500 | ≤ 100 | – |
| C#Cc1cnc(C(=O)N[C@H]2CCC[C@@H](n3c(-c4ncccc4F)nc4cnc(-n5ccnn5)cc43)C2)s1 [Example 36, 5-ethynyl-N-((1S,3R)-3-(2-(3-fluoropyridin-2-yl)-6-(1H-1,2,3-triazol-1-yl)-1H-imidazo[4,5-c]pyridin-1-yl)cyclohexyl)thiazole-2-carboxamide] | ≤ 100 nM | 500 to 1000 | 100 to 500 | – |
| CC(C)Cc1nc2cnc(-c3ncns3)cc2n1[C@@H]1CCC[C@H](NC(=O)c2ncc(Cl)s2)C1 [Example 328, 5-chloro-N-((1S,3R)-3-(2-isobutyl-6-(1,2,4-thiadiazol-5-yl)-1H-imidazo[4,5-c]pyridin-1-yl)cyclohexyl)thiazole-2-carboxamide] | 100 to 500 nM | > 5000 | > 1000 | – |
| CC(C)[C@H](N)c1nc2cnc(-c3ccccn3)cc2n1[C@@H]1CCC[C@H](NC(=O)c2ncc(Cl)s2)C1 [Example 166, N-((1S,3R)-3-(2-((S)-1-amino-2-methylpropyl)-6-(pyridin-2-yl)-1H-imidazo[4,5-c]pyridin-1-yl)cyclohexyl)-5-chlorothiazole-2-carboxamide] | ≤ 100 nM | < 500 | 100 to 500 | – |
| N#Cc1ccc(F)c(-c2nc3cnc(-c4nc[nH]n4)cc3n2[C@@H]2CCC[C@H](NC(=O)c3ccc(Cl)s3)C2)c1 [Example 345, 5-chloro-N-((1S,3R)-3-(2-(5-cyano-2-fluorophenyl)-6-(1H-1,2,4-triazol-3-yl)-1H-imidazo[4,5-c]pyridin-1-yl)cyclohexyl)thiophene-2-carboxamide] | 100 to 500 nM | 500 to 1000 | 500 to 1000 | – |
| Cc1cn[nH]c1-c1cc2c(cn1)nc(-c1ccccc1F)n2[C@@H]1CCC[C@H](NC(=O)c2ncc(Cl)s2)C1 [Example 186, 5-chloro-N-((1S,3R)-3-(2-(2-fluorophenyl)-6-(4-methyl-1H-pyrazol-5-yl)-1H-imidazo[4,5-c]pyridin-1-yl)cyclohexyl)thiazole-2-carboxamide] | ≤ 100 nM | < 500 | ≤ 100 | – |
| CC(C)Oc1nc2cnc(-n3nccn3)cc2n1[C@@H]1CCC[C@H](NC(=O)c2ncc(C(F)F)s2)C1 [Example 79, 5-(difluoromethyl)-N-((1S,3R)-3-(2-isopropoxy-6-(2H-1,2,3-triazol-2-yl)-1H-imidazo[4,5-c]pyridin-1-yl)cyclohexyl)thiazole-2-carboxamide] | 100 to 500 nM | > 5000 | > 1000 | – |
| O=C(N[C@H]1CCC[C@@H](n2c(CC3CC3)nc3cnc(-c4nc[nH]n4)cc32)C1)c1ncc(Cl)s1 [Example 312, 5-chloro-N-((1S,3R)-3-(2-(cyclopropylmethyl)-6-(1H-1,2,4-triazol-3-yl)-1H-imidazo[4,5-c]pyridin-1-yl)cyclohexyl)thiazole-2-carboxamide] | ≤ 100 nM | < 500 | ≤ 100 | – |
| CC(C)Cc1nc2cnc(-c3ncnn3C)cc2n1[C@@H]1CCC[C@H](NC(=O)c2ncc(Cl)s2)C1 [Example 164, 5-chloro-N-((1S,3R)-3-(2-isobutyl-6-(1-methyl-1H-1,2,4-triazol-5-yl)-1H-imidazo[4,5-c]pyridin-1-yl)cyclohexyl)thiazole-2-carboxamide] | 100 to 500 nM and 500 to 1000 nM | > 5000 | 100 to 500 | E |
| CC(C)Cc1nc2cnc(-c3nc[nH]n3)cc2n1[C@@H]1CCC[C@H](NC(=O)c2ncc(Cl)s2)C1 [Example 86, 5-chloro-N-((1S,3R)-3-(2-isobutyl-6-(1H-1,2,4-triazol-3-yl)-1H-imidazo[4,5-c]pyridin-1-yl)cyclohexyl)thiazole-2-carboxamide] | ≤ 100 nM | < 500 | ≤ 100 | – |
| O=C(NC1CC(O)CC(n2c(-c3ccccc3F)nc3cnc(-n4nccn4)cc32)C1)c1ncc(C(F)F)s1 (stereo not shown) [Example 106, 5-(difluoromethyl)-N-(3-(2-(2-fluorophenyl)-6-(2H-1,2,3-triazol-2-yl)-1H-imidazo[4,5-c]pyridin-1-yl)-5-hydroxycyclohexyl)thiazole-2-carboxamide] | ≤ 100 nM | < 500 | ≤ 100 | – |

Next, values leading:

| IC50 (BCAT2 [1]) | IC50 (hBCAT1) [nM] | IC50 (BCAT2 [2]) [nM] | BCAT2 Cell Inhibition (BCAT2 [2]) | Structure (SMILES) |
| --- | --- | --- | --- | --- |
| ≤ 100 nM | 500 to 1000 | 500 to 1000 | – | CC(C)Cc1nc2cnc(-c3ncon3)cc2n1[C@@H]1CCC[C@H](NC(=O)c2ncc(Cl)s2)C1 [Example 321, 5-chloro-N-((1S,3R)-3-(2-isobutyl-6-(1,2,4-oxadiazol-3-yl)-1H-imidazo[4,5-c]pyridin-1-yl)cyclohexyl)thiazole-2-carboxamide] |
| ≤ 100 nM | 500 to 1000 | 100 to 500 | – | CO[C@H]1C[C@H](NC(=O)c2ncc(Cl)s2)C[C@H](n2c(CC(C)C)nc3cnc(-n4nccn4)cc32)C1 [Example 421, 5-chloro-N-((1R,3S,5S)-3-(2-isobutyl-6-(2H-1,2,3-triazol-2-yl)-1H-imidazo[4,5-c]pyridin-1-yl)-5-methoxycyclohexyl)thiazole-2-carboxamide] |
| ≤ 100 nM | < 500 | ≤ 100 | – | CC(C)Cc1nc2cnc(-c3nc[nH]n3)cc2n1[C@@H]1CCC[C@H](NC(=O)c2ccc(C#N)s2)C1 [Example 344, 5-cyano-N-((1S,3R)-3-(2-isobutyl-6-(1H-1,2,4-triazol-3-yl)-1H-imidazo[4,5-c]pyridin-1-yl)cyclohexyl)thiophene-2-carboxamide] |
| ≤ 100 nM | 500 to 1000 | 100 to 500 | – | CO[C@@H]1C[C@@H](NC(=O)c2ncc(Cl)s2)C[C@@H](n2c(CC(C)C)nc3cnc(-c4ccccn4)cc32)C1 (stereo in doubt) [Example 426, 5-chloro-N-((1S,3R,5R)-3-(2-isobutyl-6-(pyridin-2-yl)-1H-imidazo[4,5-c]pyridin-1-yl)-5-methoxycyclohexyl)thiazole-2-carboxamide] |
| ≤ 100 nM | < 500 | ≤ 100 | – | O=C(N[C@H]1CCC[C@@H](n2c(-c3ccccc3F)nc3cnc(-c4nc[nH]n4)cc32)C1)c1ncc(Cl)s1 [Example 83, 5-chloro-N-((1S,3R)-3-(2-(2-fluorophenyl)-6-(1H-1,2,4-triazol-3-yl)-1H-imidazo[4,5-c]pyridin-1-yl)cyclohexyl)thiazole-2-carboxamide] |
| ≤ 100 nM | < 500 | ≤ 100 | – | O=C(NC1CCCC(n2c(-c3ccccc3F)nc3cnc(-n4nccn4)cc32)C1O)c1ncc(Cl)s1 (stereo not shown) [Example 112, 5-chloro-N-(3-(2-(2-fluorophenyl)-6-(2H-1,2,3-triazol-2-yl)-1H-imidazo[4,5-c]pyridin-1-yl)-2-hydroxycyclohexyl)thiazole-2-carboxamide] |
| ≤ 100 nM | < 500 | ≤ 100 | – | CC(C)Cc1nc2cnc(-c3ncccn3)cc2n1[C@@H]1CCC[C@H](NC(=O)c2ncc(Cl)s2)C1 [Example 331, 5-chloro-N-((1S,3R)-3-(2-isobutyl-6-(pyrimidin-2-yl)-1H-imidazo[4,5-c]pyridin-1-yl)cyclohexyl)thiazole-2-carboxamide] |
| ≤ 100 nM | < 500 | ≤ 100 | – | CO[C@H]1C[C@H](NC(=O)c2ncc(Cl)s2)C[C@H](n2c(-c3ccccc3F)nc3cnc(-c4nc[nH]n4)cc32)C1 (single isomer, unassigned) [Example 218] |

Source: patent US20260159512A1, “BCAT2 INHIBITORS” (AGIOS PHARMACEUTICALS, INC., priority 2021, published 2026)
